Experimental data: PubChem BioAssay (NCI)
“And” between values parts separate entries of the source, which are not always exact repeats. Identical values can stand only once.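 48-hour exposure; five concentrations; linearly interpolated endpoints. Here, GI50 denotes the concentration required for 50% inhibition of growth. TGI: total growth inhibition.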

Tests used:
Experiment in all cases: NCI tumour cell line growth inhibition, 48 h
NCI/ADR-RES ovarian = tested on: NCI/ADR-RES ovarian
UACC-257 melanoma = tested on: UACC-257 melanoma
NCI-H23 lung = tested on: NCI-H23 lung
M14 melanoma = tested on: M14 melanoma
MDA-MB-231 breast = tested on: MDA-MB-231 breast
T-47D breast = tested on: T-47D breast
UO-31 renal = tested on: UO-31 renal
OVCAR-8 ovarian = tested on: OVCAR-8 ovarian
CAKI-1 renal = tested on: CAKI-1 renal
KM12 colon = tested on: KM12 colon

| Structure (SMILES) | GI50 (NCI/ADR-RES ovarian) [µM] | TGI (NCI/ADR-RES ovarian) | GI50 (UACC-257 melanoma) [µM] | TGI (UACC-257 melanoma) [µM] | GI50 (NCI-H23 lung) [µM] | TGI (NCI-H23 lung) [µM] | GI50 (M14 melanoma) | TGI (M14 melanoma) | GI50 (MDA-MB-231 breast) | TGI (MDA-MB-231 breast) | GI50 (T-47D breast) [µM] | TGI (T-47D breast) [µM] | GI50 (UO-31 renal) | TGI (UO-31 renal) | GI50 (OVCAR-8 ovarian) | TGI (OVCAR-8 ovarian) | GI50 (CAKI-1 renal) [µM] | TGI (CAKI-1 renal) | GI50 (KM12 colon) | TGI (KM12 colon) |
| --- | --- | --- | --- | --- | --- | --- | --- | --- | --- | --- | --- | --- | --- | --- | --- | --- | --- | --- | --- | --- |
| CC[C@H](C)C(=O)O[C@H]1C[C@H](O)C=C2C=C[C@H](C)[C@H](CC[C@@H](O)C[C@@H](O)CC(=O)O)[C@H]21 | > 100 | > 100 µM | > 100 | > 100 | > 100 | > 100 | > 100 µM | > 100 µM | > 100 µM | > 100 µM | > 100 | > 100 | > 100 µM | > 100 µM | > 100 µM | > 100 µM | > 100 | > 100 µM | > 100 µM | > 100 µM |
| CC(=O)c1cc(O)c2ccccc2c1O | 24.5 | 67.5 µM | 17.7 | 34.1 | 20.2 | 53.7 | 19.7 µM | 36.7 µM | 15.2 µM | 36.2 µM | 17.4 | 41.4 | 12.1 µM | 25.5 µM | 20.2 µM | 38.6 µM | 15.5 | 30.2 µM | 18.8 µM | 35.1 µM |
| O=C(O)Cn1cc([N+](=O)[O-])c(=O)c2ccccc21 |  | > 100 µM |  | > 100 |  | > 100 |  | > 100 µM |  | 32.9 µM |  | 32.8 |  | > 100 µM |  | > 100 µM |  | > 100 µM |  | > 100 µM |
| Cc1ccc(Sc2cc3c(oc2=O)-c2ccccc2OC3O)cc1 (stereo unspecified) | 25.2 | 60.5 µM | 22.3 | 43.8 | 27.7 | 55.3 | 22.4 µM | 43.5 µM | 28.8 µM | 71.2 µM | 24.8 | 81.2 | 21.7 µM | 50.4 µM | 27.8 µM | 71.3 µM | 32 | 78.1 µM | 21.5 µM | 49.7 µM |
| Cc1coc2c1C(OC(=O)C(C)C)C1(C)C(C)CCC(O)C1C2=O (stereo unspecified) |  | > 100 µM |  | > 100 |  | > 100 |  | > 100 µM |  | > 100 µM |  | > 100 |  | > 100 µM |  | > 100 µM |  | > 100 µM |  | > 100 µM |
| C[C@@H]1COCCN1c1cc(C2(O)C[C@H]3CC[C@@H](C2)O3)c2cnn(-c3ccn[nH]3)c2n1 (stereo partly specified) | 0.154 | 1.1 µM | 0.168 | 1.42 | 0.0286 | 0.188 | 0.0383 µM | 0.785 µM | 0.138 µM | 5.68 µM | 0.122 | 0.734 | 0.0427 µM | 0.554 µM | 0.145 µM | 1.56 µM | 0.0685 | 0.627 µM | 0.167 µM | 9.73 µM |
| CCN(Cc1c(Cl)cccc1Cl)c1ccc(CO)c(Cl)c1 | 11.8 | 27.3 µM | < 0.0392 | 0.211 | 10.8 | 26.2 | 15.5 µM | 30.9 µM | 13 µM | 26.2 µM | < 0.017 | 0.18 | 12.6 µM | 26.2 µM | 13.7 µM | 29.7 µM | 4.23 | 21.9 µM | 13.7 µM | 28.4 µM |
| CC1=NN(c2nc(N)nc(/C=C\c3ccc([N+](=O)[O-])s3)n2)C(C)(C)C1 | > 100 | > 100 µM | > 100 | > 100 | > 100 | > 100 | > 100 µM | > 100 µM | > 100 µM | > 100 µM | > 100 | > 100 | > 100 µM | > 100 µM | > 100 µM | > 100 µM | > 100 | > 100 µM | > 100 µM | > 100 µM |
| Cn1cc(C2=C(N3CCOCC3)C(=O)NC2=O)c2ccccc21 | > 25 | > 25 µM | > 25 | > 25 | > 25 | > 25 | > 25 µM | > 25 µM | > 25 µM | > 25 µM | > 25 | > 25 | > 25 µM | > 25 µM | > 25 µM | > 25 µM | > 25 | > 25 µM | > 25 µM | > 25 µM |
| CNCCN=c1ccc2c3c1c(O)c1c(O)ccc(=O)c1c3[nH]n2CCNCCO |  | 46.9 µM and 404 µM and 239 µM |  | 7 |  | 2.75 | 0.397 µM and 1.19 µM | 3.41 µM and 10.4 µM | 0.97 µM and 0.504 µM | 5.45 µM and 9.63 µM |  | 5.35 | 0.918 µM and 3.47 µM | 13 µM and 62.2 µM | 0.174 µM and 0.366 µM | 6.05 µM and 5.42 µM | 0.054 | 0.992 µM and 2.28 µM | 0.918 µM | 4.23 µM and 15.1 µM |
| CC(O)c1cc(C(=O)N[C@@H](C)Cn2ccc(-c3ccc(C#N)c(Cl)c3)n2)n[nH]1 (stereo partly specified) | > 100 | > 100 µM | 27.5 | > 100 | 76 | > 100 | 32.8 µM | > 100 µM | 53.3 µM | > 100 µM | 13.2 | 87.8 | 35.1 µM | > 100 µM | 28.7 µM | > 100 µM | 44.9 | > 100 µM | 76.7 µM | > 100 µM |
| O=c1oc2c(C(F)(F)F)cccc2cc1-c1csc(Nc2ccc(OCCF)cc2)n1 | 0.0401 | 66.5 µM | 0.653 | > 100 | 0.0544 | 23.4 | 0.0282 µM | 1.14 µM | 0.0663 µM | > 35.9 µM | 0.0797 | > 100 | 0.0785 µM | 22.5 µM | 0.0393 µM | 7.66 µM | 0.0521 | > 34.7 µM | 0.0375 µM | 17.5 µM |
| CC#Cc1nc(Nc2cc(C)[nH]n2)c2ccccc2n1 | 6.63 | > 100 µM | 5.52 | 20.9 | 5.27 | 41.6 | 4.34 µM | 23.8 µM | 2.85 µM | 9.34 µM | 10.8 | 56.5 | 7.6 µM and 2.42 µM | 14.5 µM | 5.05 µM | 37.3 µM | 2.32 | 13.8 µM | 4.38 µM and 2.4 µM | 12.4 µM |
| O=C(O)C(Oc1nc(=S)[nH]c(=S)[nH]1)(c1ccc(Cl)cc1)c1ccc(Cl)cc1 |  | > 100 µM |  | > 100 |  | > 100 |  | > 100 µM |  | > 100 µM |  | > 100 |  | > 100 µM |  | > 100 µM |  | > 100 µM |  | > 100 µM |
